“Also recorded” adds a separate entry of the source.
Experiments:
[1] = tested on: AML12 hepatocytes; experiment: Intracellular NAD+ levels in AML12 hepatocytes after NRH or NR treatment (dose-response, time course); type: cell-based
Source text: (§1) Levels of NRH and other NAD-related metabolites in biological samples were obtained by using a cold liquid-liquid extraction using a mixture of methanol:water:chloroform in 5:3:5 (v/v), from which the polar phase was recovered for hydrophilic interaction ultra-high performance liquid chromatography mass spectrometry (UHPLC-MS) analysis. The UHPLC consisted of a binary pump, a cooled autosampler, and a column oven (DIONEX Ultimate 3000 UHPLC+ Focused, Thermo Scientific), connected to a triple quadrupole spectrometer (TSQ Vantage, Thermo Scientific) equipped with a heated electrospray ionisation (H-ESI) source. Of each sample, 2 μL were injected into the analytical column (2.1 mm×150 mm, 5 μm pore size, 200 Å HILICON iHILIC®-Fusion(P)), guarded by a pre-column (2.1 mm×20 mm, 200 Å HILICON iHILIC®-Fusion(P) Guard Kit) operating at 35° C. The mobile phase (10 mM ammonium acetate at pH 9, A, and acetonitrile, B) was pumped at 0.25 mL/min flow rate over a linear gradient of decreasing organic solvent (0.5-16 min, 90-25% B), followed by re-equilibration for a total run time of 30 min. The MS operated in positive mode at 3500 V with multiple reaction monitoring (MRM). The software Xcalibur v4.1.31.9 (Thermo Scientific) was used for instrument control, data acquisition and processing. Retention time and mass detection was confirmed by authentic standards.
Even at such relatively low dose, NRH achieved similar increases in intracellular NAD+ levels to those reached with NR at 50-fold higher concentrations.
NRH actions were also extremely fast (FIG. 3), as significant increases in NAD+ levels were observed within 5 minutes after NRH treatment.

[2] = tested on: equilibrative nucleoside transporters (ENTs); experiment: NRH action as NAD+ precursor under ENT blockage with NBTI; type: cell-based; conditions: in the presence of S-(4-nitrobenzyl)-6-thioinosine (NBTI)
Source text: In order to understand the exact path by which NRH synthesizes NAD+, we initially evaluated whether NRH, could be transported into the cell by equilibrative nucleoside transporters (ENTs).

[3] = Stability in FBS supplemented media; type: in vitro ADME
Source text: (§2) NR degradation to NAM has been proposed as a limitation for its pharmacological efficacy. To evaluate whether NRH was also susceptible to degradation to NAM, we spiked NRH or NR in isolated mouse plasma. […] We also tested the stability of NRH in other matrixes.

[4] = tested on: NMNAT; experiment: NRH-induced NAD+ synthesis under NMNAT inhibition with gallotannin; type: cell-based
Source text: As a follow-up step, NMNAT enzymes could catalyze the transition from NMNH to NADH.

[5] = tested on: 3T3 fibroblasts; experiment: NAD+ levels in 3T3 fibroblasts after NRH treatment; type: cell-based
Method: (§3) The ability of NRH to potently increase NAD+ was tested as well in other cell type models.

[6] = tested on: cisplatin-induced acute kidney injury; type: in vivo, C57BI/6NTac mice
Method: Simultaneously, mice were intraperitoneally injected with PBS (as vehicle) or NRH (250 mg/kg). PBS or NRH was injected at 24, 48 and 72 h after the initiation of the experiment. Kidneys of the mice were harvested, 4 h after the last injection, and NAD+ levels were analyzed in the kidney through mass spectrometry. All results are expressed as mean +/−SEM of n=5 mice per group. * indicates statistical difference at p<0.05 vs. vs. respective saline-treated mice
FIG. 7. […] Simultaneously, mice were intraperitoneally injected or not with PBS (as vehicle) or NRH (250 mg/kg) at 24, 48 and 72 h after the initiation of the experiment. Mice were sacrificed 4 h after the last injection, and plasma was collected to measure blood urea nitrogen levels. All results are expressed as mean +/−SEM of n=5 mice per group. * indicates statistical difference at p<0.05 vs. vs. respective saline-treated mice
Simultaneously, mice were intraperitoneally injected or not with PBS (as vehicle) or NRH (250 mg/kg). Urine was collected 24 h later to evaluate urea levels by NMR. All results are expressed as mean +/−SEM of n=5 mice per group. * indicates statistical difference at p<0.05 vs. vs. respective saline-treated mice.
Simultaneously, mice were intraperitoneally injected or not with PBS (as vehicle) or NRH (250 mg/kg). PBS or NRH were then injected at 24, 48 and 72 h after the initiation of the experiment. Mice were sacrificed 4 h after the last injection, and kidneys were fixed in OCT and used for immunohistochemistry against cleaved caspase 3. The cleaved caspase 3 staining was then quantified against the total area, using 10 images per mouse, 5 mice per group. All results are expressed as mean +/−SEM. * indicates statistical difference at p<0.05 vs. vs. respective saline-treated mice.
Simultaneously, mice were intraperitoneally injected or not with PBS (as vehicle) or NRH (250 mg/kg). PBS or NRH were then injected at 24, 48 and 72 h after the initiation of the experiment. 4 h after the last injection, and kidneys were obtained to isolate mRNA and analyze by qPCR makers of renal dysfunction (TGF-b1), glomerular dysfunction (fibronectin), apoptosis (BAX) and ER stress (BIP). All values are expressed as mean +/−SEM of n=4 mice per group. * indicates statistical difference at p<0.05 vs. respective vehicle-injected mice. # indicates statistical difference at p<0.05 vs. the respective mice in the control group.
Kidneys were harvested 4 hrs after the last NRH injection.

[7] = tested on: C2C12 myotubes; experiment: NAD+ levels in C2C12 myotubes after NRH treatment; type: cell-based
Method: as §3

[8] = Stability of NRH or NR spiked in isolated mouse plasma; type: in vitro ADME
Source text: as §1, §2

[9] = tested on: INS1-cells; experiment: NAD+ levels in INS1-cells after NRH treatment; type: cell-based
Method: as §3

[10] = design: species or system mice; conditions: mouse, in vivo, po
Source text: as §1
Oral administration of NRH led to very similar results to those observed after IP administration. […] In contrast, NR levels were undetectable at 1 h after NR administration. As expected, NR treatment led to large increases in circulating NAM, which where ˜4-fold higher than those observed after NRH treatment.

[11] = cisplatin 20 mg/kg, NRH 250 mg/kg
[12] = kidney qPCR, cisplatin plus NRH

SMILES: NC(=O)C1=CN([C@@H]2O[C@H](CO)[C@@H](O)[C@H]2O)C=CC1 [NRH, dihydro-1-beta-D-ribofuranosyl-3-pyridinecarboxamide]
- ability to increase intracellular NAD+ compared with NR ([1]; AML12 hepatocytes): superior to that of NR
- time to significant increases in NAD+ levels after treatment ([1]; AML12 hepatocytes): ≤ 5 min
- increase in intracellular NAD+ levels at maximal effect ([1]; NRH around the millimolar range): more than 10 fold
- fold higher NR concentration needed for similar increases in intracellular NAD+ levels ([1]; NRH at 10 μM vs NR): 50 fold
- concentration of maximal effects on NAD+ synthesis ([1]; dose-response): around the millimolar range
- concentration at which NAD+ levels are significantly increased ([1]; dose-response, AML12 hepatocytes): 10 µM
- capacity as extracellular NAD+ precursor under ENT blockage [2]: largely lost its capacity as an extracellular NAD+ precursor; also recorded: a substantial action of NRH remained
- degradation to NAM in FBS supplemented media [3]: did not degrade to NAM
- NAD+ synthesis after NRH treatment in presence of gallotannin ([4]; NRH at maximal doses (0.5 mM)): largely compromised NAD+ synthesis; also recorded: part of the NRH action remained
- NRH action in presence of gallotannin ([4]; NRH at submaximal doses): totally blocked by gallotannin
- NAD+ levels [5]: highly elevated NAD+ levels
- NAD+ levels in kidney above control ([6]; 4 h after NRH supplementation): did not observe higher NAD^+ levels
- renal NADH levels ([6]; cisplatin 20 mg/kg IP, NRH 250 mg/kg IP at 0, 24, 48, 72 h, kidneys 4 h after last injection): prevented the drop in renal NAD^+ and NADH levels
- Me2PY and Me4PY levels in urine [6, 11]: further increased
- methyl-NAM levels in kidney [6, 11]: further increased methyl-NAM levels in kidney
- PARP activity ([6]; cisplatin mice treated with NRH): higher
- kidney structure (tubular necrosis, glomeruli dilatation, inflammation, cast formation) ([6]; histology, cisplatin 20 mg/kg, NRH 250 mg/kg): largely prevented
- presence of kidney casts ([6]; histology, cisplatin plus NRH): major decrease in the presence of kidney casts
- renal cell apoptosis (cleaved caspase 3 staining) ([6]; kidney immunohistochemistry, cisplatin plus NRH (FIG. 9)): protects against cisplatin-induced renal cell apoptosis
- BAX mRNA (marker of apoptosis) [6, 12]: prevented cisplatin-induced increases
- BIP mRNA (marker of ER stress) [6, 12]: prevented cisplatin-induced increases
- TGF-β1 expression [6, 12]: prevent the increase in TGF-β1 expression
- fibronectin mRNA (marker of glomerular dysfunction) [6, 12]: prevented cisplatin-induced increases
- NAD+ levels [7]: highly elevated NAD+ levels
- NR production on incubation in isolated plasma [8]: did not lead to NR production
- NAD+ levels [9]: highly elevated NAD+ levels
- NRH concentration in plasma [10]: 11.16 ± 1.74 µM
- administered compound in plasma [10]: detectable in plasma

— patent US20220296623A1, “REDUCED NICOTINAMIDERIBOSIDES FOR TREATING OR PREVENTING KIDNEY DISEASE” (SOCIETE DES PRODUITS NESTLE S.A., priority 2019, published 2022)
